From US5512549A, “Glucagon-like insulinotropic peptide analogs, compositions, and methods of use” (Eli Lilly and Company, priority 1994, dated 1996)

Columns and labels:
[1] = system: Sprague Dawley or Zucker Diabetic Fatty rats; assay: Rat IV Glucose (1 g/kg) Tolerance Test; type: in vivo; conditions: for Insulin Change AUC: 0-15 min
Description: a) Glucose Tolerance Tests
Experiments were conducted in overnight-fasted, conscious, male Sprague Dawley (Charles River) or Zucker Diabetic Fatty (Genetic Models, Inc.) rats weighing approximately 250 (Sprague Dawley rats) or 300 (Zucker Diabetic Fatty rats) grams. Four to five days prior the study, rats were anesthetized with isoflurane, and a polyethylene (PE50) catheter was inserted into the right jugular vein. The catheter was secured with a wound clip, filled with saline containing heparin (2% sodium heparin), and closed with a small stainless steel plug.
After a sixteen-hour fast, twelve chronically cannulated rats were separated into four groups of three rats per group. 0.4 ml of blood was taken from the tail vein, collected into a microtainer tube containing lithium heparin, and immediately placed on ice (zero minute sample). A glucose bolus (1.0 g/kg; 50% glucose (w/v) in water) was administered via the indwelling jugular cannula, and the cannula was rinsed with 200 μl of saline. Twenty seconds later a bolus of test substance 100 μl/100 g body weight of either vehicle (saline containing 0.3% (w/v) bovine serum albumin) or vehicle containing analog! was administered through the jugular cannula, and the cannula was rinsed as before. Rats were bled from the tail again at 2, 5, 10, 20 and 30 minutes after the administration of the glucose bolus, and the samples were treated as described above. At the end of the experiment, blood samples were centrifuged, and the plasma was collected.
Plasma glucose concentrations were determined the day of the experiment using a coupled hexokinase procedure in a clinical chemistry analyzer. Plasma for insulin determinations were diluted with zero calibrator and frozen at -20° C. until time for analysis. Insulin concentrations were determined using a commercial radioimmunoassay kit with rat insulin as the standard.
Insulin change (the change in insulin from the baseline value) was calculated as the difference between the insulin concentration at time t and the insulin concentration at zero time. The area under the insulin change curve was calculated using the trapezoidal rule. Plasma glucose change (the increase in plasma glucose above the baseline value) was calculated as the difference between the plasma glucose concentration at time t and the plasma glucose concentration at zero time. The area under the plasma glucose change curve was calculated using the trapezoidal rule. Values are listed as the mean ± the standard error of the mean (SEM).

[2] = system: beagles; assay: Dog S.C. Hyperglycemic (150 mg/dl) Clamp Test; type: in vivo; conditions: S.C. 10 μg/kg; for GIR Change AUC / Insulin Change AUC: 0-120 min; for GIR Change AUC / Insulin Change AUC / Max Insulin Change: mean ± SEM; for Max Insulin Change: 120 minute test period; for Duration of Insulin Effect: time average insulin change consistently >0.5 ng/ml
Description: a) Hyperglycemic Clamp Studies
Experiments were conducted in overnight-fasted, conscious, adult (1-2 years of age) male and female beagles weighing 8-15 kg. At least ten days prior to the study, animals were anesthetized with isoflurane, and a cut-down was made in the left or right inguinal region. Silastic catheters were inserted into the femoral artery and the proximal caudal femoral vein and secured with 4-0 silk suture. The free ends of the catheters were passed subcutaneously to the back using a trocar needle. The catheters were then filled with a glycerol/heparin solution (3:1, v/v; final heparin concentration of 250 KIU/ml), and the free ends were knotted and placed in a subcutaneous pocket to allow complete closure of the skin. Keflex® was administered both pre-operatively (20 mg/kg, IV and 20 mg/kg, I.M.) and post-operatively (250 mg, p.o. once daily for seven days) to prevent infections. Torbugesic (1.5 mg/kg, I.M.) was administered post-operativelyto control pain.
Blood was drawn just prior to the study day to determine the health of the animal. Only animals with hematocrits above 38% and leukocyte counts below 16,000/mm^3 were used.
The afternoon before the experiment, the free ends of the catheters were exteriorized from the subcutaneous pocket through a small incision made under local anesthesia (2% lidocaine), and the dog was fitted with a tether system jacket and collar assembly.
The morning of the experiment, the contents of the catheters were aspirated, the catheters were flushed with saline, and extension lines (protected by a stainless steel tether) were attached to the catheters. On mornings of IV injection experiments, an over-the-needle, teflon catheter was inserted percutaneously into a cephalic vein in preparation for the administration of an IV bolus of test substance. The dog was placed in a metabolic cage, and the catheter extension lines and tether were attached to a swivel system to allow the dog to move freely about the cage. At this time (-60 minutes), an exogenous infusion of glucose (50% w/v in water) was begun through the chronic venous catheter. Glucose was infused in a descending stepwise fashion over the first six minutes of the study to rapidly raise the plasma glucose concentration to 150 mg/dl. Plasma glucose concentrations were determined every 2.5 to 7.5 minutes throughout the remainder of the study, and the glucose infusion rate was adjusted appropriately to maintain the plasma glucose concentration at 150 mg/dl.
Sixty minutes after the start of the glucose infusion (time 0), test substance was administered either intravenously (1.0, 2.9, 5.0 or 10.0 μg/kg; dose dissolved in 2 ml of saline containing 0.3% dog albumin, w/v) through the previously inserted teflon catheter or subcutaneously (10 μg/kg; 150 μM in phosphate buffered saline) in the dorsal aspect of the neck.
Arterial blood samples (3.5 ml) were taken at -30, -15, 0, 2.5, 5, 7.5, 10, 12.5, 15, 20, 30, 45, 60, 75, 90, 105 and 120 minutes during the IV studies and at -30, -15, 0, 3, 6, 9, 12, 15, 20, 30, 45, 60, 75, 90, 105 and 120 minutes during the SC studies. Samples were collected in vacuum blood collection tubes containing disodium EDTA and immediately placed on ice. To prevent proteolytic cleavage of GLP-1(7-37) in the plasma samples, 1.5 ml of the EDTA containing blood were transferred to a polypropylene tube containing 40 μl of aprotinin (10,000 KIU/ml) and mixed well. The samples were centrifuged, and the resulting plasma was transferred to polypropylene test tubes and stored on ice for the duration of the study.
At the conclusion of the experiment, the animal was anesthetized (isoflurane); the catheters were flushed with fresh saline and filled with the glycerol/heparin mixture; the free ends of the catheters were knotted and placed subcutaneously as described earlier; and antibiotic was administered (300 mg Keflex®, I.M.). […]

Row | Substance | Insulin Change at 10 min ([1]; IV dose 0.6 mg/kg) | Max Insulin Change ([1]; IV dose 0.6 mg/kg) | Insulin Change AUC ([1]; IV dose 0.6 mg/kg) | Insulin Change at 10 min ([1]; IV dose 0.92 mg/kg) | Max Insulin Change ([1]; IV dose 0.92 mg/kg) | Insulin Change AUC ([1]; IV dose 0.92 mg/kg) | Insulin Change at 10 min ([1]; IV dose 1.2 mg/kg) | Max Insulin Change ([1]; IV dose 1.2 mg/kg) | Insulin Change AUC ([1]; IV dose 1.2 mg/kg) | GIR Change AUC [2] | Insulin Change AUC [2] | Max Insulin Change [2] | Duration of Insulin Effect [2]
1 | GLP-1(7-37)OH | 5.4 ng/mL | 7.8 ng/mL | 79 ± 8 ng·min/mL | 3.5 ng/mL | 8.4 ng/mL | 75 ± 12 ng·min/mL | 4.2 ng/mL | 8.4 ng/mL | 77 ± 17 ng·min/mL | 696 ± 145 mg/kg | 64 ± 33 ng·min/mL | 1.6 ± 0.8 ng/mL | 27 min
2 | Lys^34 -N^ε -octanoyl-GLP-1(7-37)OH [Lys^34-N^ε-octanoyl-GLP-1(7-37)OH] | 1.3 ng/mL | 5.0 ng/mL | 33 ± 8 ng·min/mL |  |  |  | 10.0 ng/mL | 13.1 ng/mL | 136 ± 30 ng·min/mL | 532 ± 112 mg/kg | 29 ± 8 ng·min/mL | 0.6 ± 0.3 ng/mL | not active
